Among the data in EP0309422A2, “New amidino tricycle derivatives” (ISTITUTO DE ANGELI S.p.A., priority 1987, dated 1989) are Kd values, retold here.

The structures appear in SMILES notation.

The experiment addresses T1, muscarinic receptors of the cerebral cortex (Rattus norvegicus, UniProt P08482).
T1 construct: displacement of ³H-pirenzepine from cerebral cortex homogenate; from tissue; host or cells: rat cerebral cortex homogenate
T1 sequence (P08482 1-460): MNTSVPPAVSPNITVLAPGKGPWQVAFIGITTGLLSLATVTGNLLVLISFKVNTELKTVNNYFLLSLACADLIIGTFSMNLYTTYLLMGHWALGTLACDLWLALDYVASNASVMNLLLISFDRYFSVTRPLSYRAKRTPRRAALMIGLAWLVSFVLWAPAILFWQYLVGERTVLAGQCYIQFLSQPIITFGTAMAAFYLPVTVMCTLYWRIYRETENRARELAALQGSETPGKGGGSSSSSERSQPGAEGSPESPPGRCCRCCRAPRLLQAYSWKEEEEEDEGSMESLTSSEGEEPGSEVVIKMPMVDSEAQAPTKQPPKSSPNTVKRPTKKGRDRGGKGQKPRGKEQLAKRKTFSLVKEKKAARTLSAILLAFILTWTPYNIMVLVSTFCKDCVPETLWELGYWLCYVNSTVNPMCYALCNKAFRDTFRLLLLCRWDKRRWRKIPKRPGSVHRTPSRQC
Nature of the experiment: Antimuscarinic activity: in vitro binding, displacement of ³H-pirenzepine from cerebral cortex homogenate. More on the design: species or system male CD-COOBBS rats. Particulars: competition against 0.5 nM ³H-pirenzepine, 45 min at 30°C, KD from IC50 corrected for radioligand occupancy shift, read-out: Dissociation constants (KD) for ³H-pirenzepine binding. As for the experimental part: Antimuscarinic activity was examined by studying the displacement of ³H-pirenzepine from cerebral cortex homogenate according to the procedure reported below: The cerebral cortex donors were male CD-COOBBS rats, 220-250 g body weight. The homogenization process was carried out in a Potter-Evelhjem apparatus in the presence of Na⁺/Mg⁺⁺ HEPES buffer; pH 7.4 (100 mM NaCl, 10 mM MgCl₂, 20 mM HEPES), by filtering the suspension through two layers of cheesecloth.
Binding curves for the under study compounds were derived indirectly from competition experiments against 0.5 nM ³H-pirenzepine labelling the muscarinic receptors of the cerebral cortex. 1 ml of the homogenate was incubated for 45 min at 30°C in the presence of a marker ligand and different concentrations of the cold ligand, conditions under which equilibrium was reached as determined by appropriate association experiments. The incubation was terminated by centrifugation (12,000 rpm for 3 min) at room temperature using an Eppendorf microcentrifuge. The resultant pellet was washed twice with 1.5 ml saline to remove the free radioactivity and it was allowed to drain for some hours. The tips of the tubes containing the pellet were cut off and 200 µl of tissue solubilizer (Lumasolve, Lumac) were added and left to stand overnight. Radioactivity was then counted after addition of 4 ml of liquid scintillation mixture (Dimilume/Toluene 1:10 v:v, Packard)
Assays were carried out in triplicate or quadruplicate and the non-specific binding was defined as the radioactivity bound or entrapped in the pellet when the incubation medium contained 1 µM atropine sulphate. Non-specific binding avaraged less than 30%. KD values (dissociation constants) were obtained by non-linear regression analysis on the basis of a one binding site model with TOPFIT-pharmacokinetic programme package (G. HEINZEL, "Pharmacokinetics during drug development: data analysis and evaluation techniques" Eds. G. BOLZER and J.M. VAN ROSSUM; p. 207, G. Fisher, New York, 1982) after correction for the radioligand occupancy shift according to the equation: KD = IC₅₀/1 + *C/*KD, where *C and *KD represent the concentration and the dissociation constant of the radioligand used, respectively.
As for `CC1=NCCCN1CCC(=O)N1c2ccccc2C(=O)Nc2cccnc21` [Compound 85, 5,11-dihydro-11-[3-(2-methyl-1,4,5,6-tetrahydropirimidin-1-yl)-propionyl]-6H-pyrido[2,3-b] [1,4]-benzodiazepin-6-one], the Kd (usually the concentration at which binding is half-saturated) stood at 5 nM.
Turning to `O=C1Nc2ccccc2N(C(=O)CCN2C=NCCC2)c2ccccc21` [Compound 81, 5,10-dihydro-5-[3-(1,4,5,6-tetrahydropirimidin-1-yl)-propionyl]-11H-dibenzo[b,e] [1,4]-diazepin-11-one], the Kd came out at 10 nM.
For the compound `N=C(N)N1CCN(CC(=O)N2c3ccccc3NC(=O)c3ccccc32)CC1` [Compound 3, 5,10-dihydro-5-[2-(4-guanyl-piperazin-1-yl)-acetyl]-11H-dibenzo [b,e] [1,4]-diazepin-11-one], the dissociation constant (Kd) was 6 nM.
Next, `CC(=N)N1CCCC(CC(=O)N2c3ccccc3NC(=O)c3ccccc32)C1` (stereo not drawn) [Compound 61, 5,10-dihydro-5-[2-(1-α-iminoethyl - piperidin-3-yl)-acetyl]-11H-dibenzo[b,e] [1,4]-diazepin-11-one]: 5 nM; `CNC(=N)C1CCCN(CC(=O)N2c3ccccc3NC(=O)c3ccccc32)C1` (stereo not drawn) [Compound 78, 5,10-dihydro-5-[2-(3-N-methylguanyl-piperidin-1-yl)-acetyl]-11H-dibenzo[b,e] [1,4]-diazepin-11-one]: 5 nM.
As to `CC1=NCCCN1CCC(=O)N1c2ccccc2NC(=O)c2ccccc21` [Compound 84, 5,10-dihydro-5-[3-(2-methyl-1,4,5,6-tetrahydropirimidin-1-yl)-propionyl]-11H-dibenzo[b,e] [1,4]-diazepin-11-one], the dissociation constant (Kd) turned out to be 2.5 nM.
As for `O=C1Nc2ccccc2N(C(=O)CC2CCN(C3=NCCN3)CC2)c2ccccc21` [Compound 72], the dissociation constant (Kd) is 4 nM.
Next, `CC(=N)N1CCC(CC(=O)N2c3ccccc3NC(=O)c3ccccc32)CC1` [Compound 60, 5,10-dihydro-5-[2-(1-α-iminoethyl-piperidin-h-yl)-acetyl]-11H-dibenzo[b,e] [1,4]-diazepin-11-one]: 2.7 nM; `O=C1Nc2cccnc2N(C(=O)CCN2C=NCCC2)c2ccccc21` [Compound 82, 5,11-dihydro-11-[3-(1,4,5,6-tetrahydropirimidin-1-yl)-propionyl]-6H-pyrido[2,3-b] [1,5]-benzodiazepin-6-one]: 10 nM.
Next, `O=C1Nc2ccccc2N(C(=O)CCN2C=NCCC2)c2cscc21` [Compound 83, 4,9-dihydro-4-[3-(1,4,5,6-tetrahydropirimidin-1-yl)-propionyl]-10H-thieno[3,4-b] [1,5]-benzodiazepin-10-one]: 7 nM; `N=C(N)N1C2CCC1CC(CC(=O)N1c3ccccc3NC(=O)c3cscc31)C2` (stereo not drawn) [Compound 19, 4,9-dihydro-4-[2-(8-guanyl-8-azabicyclo[3.2.1]-octan-3-yl)-acetyl]-10H-thieno[3,4-b] [1,5]-benzodiazepin-10-one]: 4 nM.
Next, `N=C(N)N1CCCC(CC(=O)N2c3ccccc3NC(=O)c3ccccc32)C1` (stereo not drawn) [Compound 26, 5,10-dihydro-5-[2-(1-guanyl-piperidin-3-yl)-acetyl]-11H-dibenzo [b,e] [1,4]-diazepin-11-one]: 9 nM; `N=C(N)N1CCC(OC(=O)C2c3ccccc3NC(=O)c3ccccc32)CC1` (stereo not drawn) [Compound 31, 5,6-dihydro-11-[(1-guanyl-4-piperidinyl)-oxycarbonyl]-11H-dibenz[b,e]-azepin-6-one]: 7.7 nM.
In the case of `CC(=N)N1CCCC(C(=O)N2c3ccccc3NC(=O)c3ccccc32)C1` (stereo not drawn) [Compound 62, 5,10-dihydro-5-[(1-α-iminoethyl-piperidin-3-yl)-carbonyl]-11H-dibenzo[b,e] [1,4]-diazepin-11-one], the Kd turned out to be 8 nM.
Next, `N=C(N)N1CCC(CC(=O)N2c3ccccc3NC(=O)c3ccccc32)CC1` [Compound 20, 5,10-dihydro-5-[2-(1-guanyl-piperidin-4-yl)-acetyl]-11H-dibenzo b,e [1,4]-diazepin-11-one]: 3.2 nM.
